pIC50: −log10 of the molar value. Structures can show the parent of a compound that is named as a salt. Where two headings read alike, the source gives them in different places.
Legend:
Type in all cases: biochemical
[1] = target: S. Agalactiae DltA (Streptococcus agalactiae serotype III (strain NEM316), UniProt Q8VM67); assay: in vitro DltA activity assay (luminescence), S. agalactiae DltA
Protocol: (§1) The effect of the compounds of the invention on DltA enzymes has been based on the measure of their inhibition of DltA activity in vitro. To this end, recombinant proteins DltA were expressed and purified after cloning of the genes of S. aureus, E. faecalis, E. faecium and S. agalactiae as described thereafter. The capacity of the compounds of the invention to inhibit DltA enzymatic activity was assessed using the DltA assays as described below:
(§2) The dltA gene was amplified from chromosomal DNA of S. aureus, E. faecalis, E. faecium and S. agalactiae and introduced into E. coli BL21 (Invitrogen, Carlsbad, Calif.) following manufacturer's instruction. Bacteria were grown at 37° C. under aerobic conditions and isopropyl-beta-D-thiogalactopyranoside (IPTG) was added to 0.5-1 mM when OD600 of the bacterial culture had reached 0.5. After a further incubation for 3 hours, cells were harvested by centrifugation. Purification of the recombinant DltA protein was performed by affinity chromatography on nickel-nitrilotriacetic acid (Ni-NTA) column following manufacturer's instructions (Qiagen). Fractions containing recombinant DltA protein were adjusted to 50% glycerol and stored at −20° C. until use.
(§3) The binding potency of the inhibitors against DltA enzyme was assessed by IC50 determination in an in vitro DltA activity assay. The assay buffer “AB” contained 50 mM Hepes pH8.0, 10 mM MgCl2, 50 mM KCl, 0.012% Triton-X100, 10 mM DTT and 100 nM Myelin-basic protein. The following components were added in a white polystyrene Costar plate up to a final volume of 30 μL: 3 μL DMSO, or inhibitor dissolved in DMSO and 27 μL DltA enzyme in AB. After 30 min of pre-incubation at room temperature, 30 μL of Substrates mix in AB were added in each well to a final volume of 60 μL. This reaction mixture was then composed of DltA (produced in house from S. aureus, E. faecalis, E. faecium and S. agalactiae), 0.5 mM D-Alanine (Sigma), 0.5-5 μM ATP (Sigma) and 0.05 u/ml inorganic pyrophosphatase (Sigma) in assay buffer. After typically 1-2 hours of incubation at room temperature (conversion rate around 30%), 30 μL of the revelation mix were added to a final volume of 90 μL, including the following constituents at the respective final concentrations: 10000 u/ml luciferase (Sigma), 30 μM D-luciferin (Sigma), 100 μM N-acetylcysteamine (Aldrich). Luminescence intensity was immediately measured on a Fluostar Optima (BMG) (excitation 360 nm, emission 520 nm) and converted into inhibition percentages. For IC50 determinations (Inhibitory Concentration 50%) the inhibitor was added at 6 to 10 different concentrations and the related inhibitions were fitted to a classical Langmuir equilibrium model using XLFIT (IDBS).
(§4) For compounds interfering with the luminescent signal (quenching), the same experiment without DltA enzyme was performed to allow quenching determination and correction.

[2] = target: S. aureus DltA (Staphylococcus aureus (strain NCTC 8325 / PS 47), UniProt Q2FZW6); assay: in vitro DltA activity assay (luminescence), S. aureus DltA
Protocol: as §1, §2, §3, §4

[3] = target: E. feacalis DltA (Enterococcus faecalis, UniProt Q830N0); assay: in vitro DltA activity assay (luminescence), E. faecalis DltA
Sequence of E. feacalis DltA (Q830N0 1-506): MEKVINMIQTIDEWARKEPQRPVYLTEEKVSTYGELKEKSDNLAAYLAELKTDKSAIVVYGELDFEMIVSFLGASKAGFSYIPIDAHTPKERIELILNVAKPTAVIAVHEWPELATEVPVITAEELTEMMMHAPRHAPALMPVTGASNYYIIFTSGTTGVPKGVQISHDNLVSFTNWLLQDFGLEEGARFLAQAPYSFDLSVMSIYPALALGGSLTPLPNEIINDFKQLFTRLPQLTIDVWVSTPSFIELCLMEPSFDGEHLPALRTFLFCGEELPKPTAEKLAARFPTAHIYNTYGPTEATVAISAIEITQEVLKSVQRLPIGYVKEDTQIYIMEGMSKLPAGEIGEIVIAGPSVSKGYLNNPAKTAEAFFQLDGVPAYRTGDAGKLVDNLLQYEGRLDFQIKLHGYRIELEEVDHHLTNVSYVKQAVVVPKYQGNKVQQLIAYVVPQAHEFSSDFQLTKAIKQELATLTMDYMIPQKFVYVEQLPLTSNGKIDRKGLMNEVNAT
Protocol: as §1, §2, §3, §4

[4] = target: E. feacium DltA (Enterococcus faecium, UniProt Q3XZT7); assay: in vitro DltA activity assay (luminescence), E. faecium DltA
Sequence of E. feacium DltA (Q3XZT7 1-504): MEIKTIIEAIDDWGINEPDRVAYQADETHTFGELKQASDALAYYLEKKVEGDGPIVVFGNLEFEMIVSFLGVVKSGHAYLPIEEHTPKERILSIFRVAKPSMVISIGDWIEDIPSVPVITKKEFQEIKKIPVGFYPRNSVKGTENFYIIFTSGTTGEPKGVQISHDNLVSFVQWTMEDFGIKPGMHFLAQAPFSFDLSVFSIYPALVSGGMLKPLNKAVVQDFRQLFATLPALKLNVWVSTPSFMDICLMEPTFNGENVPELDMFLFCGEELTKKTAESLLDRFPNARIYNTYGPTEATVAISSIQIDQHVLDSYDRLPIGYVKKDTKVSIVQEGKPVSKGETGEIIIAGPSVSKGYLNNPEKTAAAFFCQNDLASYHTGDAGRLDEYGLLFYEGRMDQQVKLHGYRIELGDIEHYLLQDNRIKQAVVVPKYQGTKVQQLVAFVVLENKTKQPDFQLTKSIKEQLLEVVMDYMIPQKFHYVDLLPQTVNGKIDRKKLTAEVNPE
Protocol: as §1, §2, §3, §4

[5] = recombinant DltA, 30 min pre-incubation, 0.5 mM D-Alanine, 0.5-5 μM ATP, read-out: S. Agalactiae DltA IC50
[6] = recombinant DltA, 30 min pre-incubation, 0.5 mM D-Alanine, 0.5-5 μM ATP, read-out: S. aureus DltA IC50
[7] = recombinant DltA, 30 min pre-incubation, 0.5 mM D-Alanine, 0.5-5 μM ATP, read-out: E. feacalis DltA IC50
[8] = recombinant DltA, 30 min pre-incubation, 0.5 mM D-Alanine, 0.5-5 μM ATP, read-out: E. feacium DltA IC50

| SMILES | pIC50 [1, 5] | pIC50 [2, 6] | pIC50 [3, 7] | pIC50 [4, 8] | pIC50 [1] | pIC50 [2] | pIC50 [3] | pIC50 [4] |
| --- | --- | --- | --- | --- | --- | --- | --- | --- |
| CCn1cnc2cc(-c3cc(N(C)CCN(C)C)c(C(N)=O)c4[nH]cnc34)cc(OC)c21 [Example 152] | 5.66 | 7.89 | 7.80 | 7.24 |  |  |  |  |
| OCC1(CO)CCN(c2cc3[nH]cnc3c(-c3ccc4c(c3)ncn4C3CCCCC3)n2)CC1 [Example 20, {1-[4-(1-Cyclohexyl-1H-benzimidazol-5-yl)-1H-imidazo[4,5-c]pyridin-6-yl]-4-hydroxymethyl-piperidin-4-yl}-methanol] | 6.54 | 7.92 | 7.25 | 6.77 |  |  |  |  |
| NC(=O)c1c(N2CCC(CO)(CO)CC2)cc(-c2ccc3c(c2)ncn3C2CCCCC2)c2nc[nH]c12 [Example 211, 5-[4,4-bis(hydroxymethyl)-1-piperidyl]-7-(1-cyclohexylbenzimidazol-5-yl)-3H-benzimidazole-4-carboxamide] | 6.33 | 7.62 | 8.17 | 8.70 |  |  |  |  |
| CN(C)CCCN(C)c1cc(-c2ccc3c(c2)ncn3C2CCCCC2)c2nc[nH]c2c1C(N)=O [Example 122, 1′-Cyclohexyl-6-[(3-dimethylamino-propyl)-methyl-amino]-1H,1′H-[4,5′]bibenzimidazolyl-7-carboxamide] | 5.74 | 7.23 | 7.51 | 7.09 |  |  |  |  |
| CN1CCC[C@@H]1COc1cc(-c2cnc3c(c2)CCCO3)c2nc[nH]c2c1C(N)=O [Example 210, 7-(3,4-dihydro-2H-pyrano[2,3-b]pyridin-6-yl)-5-[[(2R)-1-methylpyrrolidin-2-yl]methoxy]-3H-benzimidazole-4-carboxamide methanesulfonic acid salt] | 6.82 | 8.21 | 8.29 | 7.44 |  |  |  |  |
| CN(C)CCN(C)c1cc(-c2ccc3c(c2)ncn3C2CCC(F)(F)CC2)c2nc[nH]c2c1C(N)=O [Example 161, 1′-(4,4-Difluoro-cyclohexyl)-6-[(2-dimethylamino-ethyl)-methyl-amino]-1H,1′H-[4,5′]bibenzimidazolyl-7-carboxamide] | 5.92 | 7.89 | 8.09 | 7.16 |  |  |  |  |
| CN(CCN1CCCC1)c1cc(-c2ccc3c(c2)ncn3C2CCCCC2)c2nc[nH]c2c1C(N)=O [Example 127, 1′-Cyclohexyl-6-[methyl-(2-pyrrolidin-1-yl-ethyl)-amino]-1H,1′H-[4,5′]bibenzimidazolyl-7-carboxamide] | 6.85 | 7.60 | 8.54 | 7.74 |  |  |  |  |
| NC(=O)c1c(N2CC3CNCC3C2)cc(-c2ccc3c(c2)ncn3C2CCCCC2)c2nc[nH]c12 (stereo not drawn) [Example 65, 1′-Cyclohexyl-6-(hexahydro-pyrrolo[3,4-c]pyrrol-2-yl)-1H,1′H-[4,5′]bibenzimidazolyl-7-carboxylic acid amide hydrochloride] | 5.74 | 7.18 | 7.44 | 6.85 |  |  |  |  |
| CN(C)CCN(CCO)c1cc(-c2ccc3c(c2)ncn3C2CCCCC2)c2nc[nH]c2c1C(N)=O [Example 131, 1′-Cyclohexyl-6-[(2-dimethylamino-ethyl)-(2-hydroxy-ethyl)-amino]-1H,1′H-[4,5′]bibenzimidazolyl-7-carboxamide] | 5.72 | 7.12 | 7.40 | 6.64 |  |  |  |  |
| OCCC1CCN(c2cc(-c3ccc4c(c3)ncn4C3CCCCC3)c3nc[nH]c3n2)C1 (stereo not drawn) [Example 10, 2-{1-[7-(1-Cyclohexyl-1H-benzimidazol-5-yl)-3H-imidazo[4,5-b]pyridin-5-yl]-pyrrolidin-3-yl}-ethanol] | 5.42 | 6.80 | 7.14 | 6.92 |  |  |  |  |
| CN1CCCC1COc1cc(-c2cnc3c(c2)CCCO3)c2nc[nH]c2c1C(N)=O (stereo not drawn) [Example 233, 7-(3,4-dihydro-2H-pyrano[2,3-b]pyridin-6-yl)-5-[(1-methylpyrrolidin-2-yl)methoxy]-3H-benzimidazole-4-carboxamide methanesulfonic acid salt] | 6.89 | 8.19 | 8.33 | 7.62 |  |  |  |  |
| NC(=O)c1c(OC[C@H]2CCCN2)cc(-c2ccc3c(c2)ncn3[C@@H]2CCCC[C@H]2F)c2nc[nH]c12 [Example 214, 7-[1-[(1R,2R)-2-fluorocyclohexyl]benzimidazol-5-yl]-5-[[(2R)-pyrrolidin-2-yl]methoxy]-3H-benzimidazole-4-carboxamide methanesulfonic acid salt] |  |  |  |  | 6.41 | 8.40 | 8.40 | 7.49 |
| O=[N+]([O-])c1c(N2CC[C@H](CO)[C@@H](O)C2)cc(-c2ccc3c(c2)ncn3C2CCCCC2)c2nc[nH]c12 [Example 44, (3R,4R)-1-(1′-Cyclohexyl-7-nitro-1H,1′H-[4,5′]bibenzimidazolyl-6-yl)-4-hydroxymethyl-piperidin-3-ol] | 5.82 | 7.31 | 7.15 | 7.02 |  |  |  |  |
| OC[C@H]1CCN(c2cc(-c3ccc4c(c3)ncn4C3CCCCC3)c3nc[nH]c3n2)C[C@@H]1O [Example 2, (3R,4R)-1-[7-(1-Cyclohexyl-1H-benzimidazol-5-yl)-3H-imidazo[4,5-b]pyridin-5-yl]-4-hydroxymethyl-piperidin-3-ol] | 6.30 | 7.18 | 7.74 | 7.07 |  |  |  |  |
| CN(CCO)c1cc(-c2cnc3c(c2)CCCO3)c2nc[nH]c2c1C(N)=O [Example 177, 7-(3,4-Dihydro-2H-pyrano[2,3-b]pyridin-6-yl)-5-[(2-hydroxy-ethyl)-methyl-amino]-3H-benzimidazole-4-carboxamide] | 5.96 | 6.77 | 7.35 | 6.49 |  |  |  |  |
| CN(CCO)c1cc(-c2ccc3c(c2)ncn3[C@@H]2CCCC[C@H]2F)c2nc[nH]c2c1C(N)=O [Example 171] | 6.46 | 7.82 | 8.17 | 7.40 |  |  |  |  |
| CN1CCN(c2cc(-c3ccc4c(c3)ncn4C3CCCCC3)c3nc[nH]c3c2C(N)=O)CC1 [Example 106, 1′-Cyclohexyl-6-(4-methyl-piperazin-1-yl)-1H,1′H-[4,5′]bibenzimidazolyl-7-carboxamide] | 6.30 | 7.47 | 7.74 | 7.12 |  |  |  |  |
| COCCn1cnc2cc(-c3cc(N(C)CCN(C)C)c(C(N)=O)c4[nH]cnc34)ccc21 [Example 135] | 6.08 | 7.77 | 7.16 | 7.35 |  |  |  |  |
| CN1CCC[C@@H]1COc1cc(-c2ccc3c(c2)ncn3C2CCCCC2)c2nc[nH]c2c1C(N)=O [Example 236, 7-(1-cyclohexylbenzimidazol-5-yl)-5-[[(2R)-1-methylpyrrolidin-2-yl]methoxy]-3H-benzimidazole-4-carboxamide methanesulfonic acid salt] | 7.04 | 9.40 | 8.85 | 8.44 |  |  |  |  |
| CN(C)CCN(C)c1cc(-c2ccc3c(c2)ncn3C2CCCOC2)c2nc[nH]c2c1C(N)=O (stereo not drawn) [Example 123, 6-[(2-dimethylamino-ethyl)-methyl-amino]-1′-(tetrahydro-pyran-3-yl)-1H,1′H-[4,5′]bibenzimidazolyl-7-carboxamide] | 6.01 | 8.16 | 8.09 | 7.39 |  |  |  |  |
| CN(C)CCN(C)c1cc(-c2cc3c4c(c2)ncn4CCO3)c2nc[nH]c2c1C(N)=O [Example 165, 7-(3,4-Dihydro-5-oxa-1.2a-diaza-acenaphthylen-7-yl)-5-[(2-dimethylamino-ethyl)-methyl-amino]-3H-benzimidazole-4-carboxamide] | 5.66 | 7.54 | 7.59 | 7.05 |  |  |  |  |
